Data taken from patent publication US9839642B2, “Beta-tetrazolyl-propionic acids as metallo-beta-lactamase inhibitors” (priority 2014, dated 2017).
Where two headings read alike, the source gives them in different places.

Tests used:
IMP-1 = IMP-1 (Serratia marcescens, UniProt P52699); assay: Enzyme activity: determination of IC50, fluorescence assay with CCF2-FA substrate; assay type: biochemical; details: CCF2-FA 1.25 μM, 2 hours at 25° C., read-out: IMP1 IC50
Procedure, shortened: (§1)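 Enzyme (1 pM NDM-1, 2 pM IMP-1, 30 pM VIM-1) incubated with inhibitor (20 to 0.00063 μM) and 1.25 μM CCF2-FA in 100 mM KH2PO4 pH 7, 0.005% Tween-20, 10 μM ZnSO4, 2 h at 25 °C. Fluorescence read at 460 nm (ex 405 nm); IC50 by 4-parameter fit.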

NDM-1 = NDM-1 (Klebsiella pneumoniae, UniProt C7C422); assay: as above; assay type: biochemical; details: CCF2-FA 1.25 μM, 2 hours at 25° C.
Procedure, shortened: as §1

VIM-1 = VIM-1 (Pseudomonas aeruginosa, UniProt A0A0F7KYQ8); assay: as above; assay type: biochemical; details: CCF2-FA 1.25 μM, 2 hours at 25° C., read-out: VIM1 IC50
Procedure, shortened: as §1

[1] = tested on: Escherichia coli expressing NDM-1 (CLB30005); assay: Antibiotic potentiation activity: synergistic concentration (MITC95) with imipenem, growth by OD600; assay type: cell-based; details: 95% inhibition of bacterial growth, strain CLB30005
Procedure, shortened: (§2)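 Strains grown overnight at 35° C, resuspended in saline, diluted 1:100 into 1.1×CAMHB; imipenem at 1 μg/ml or 4 μg/ml with test compound 200 μM to 0.195 μM. Incubated 22 hours to 24 hours at 35° C, OD600 read; MITC95 is lowest compound concentration inhibiting 95% of growth.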

[2] = tested on: Klebsiella pneumoniae expressing VIM-1 (IHMA599644); assay: as above; assay type: cell-based
Procedure, shortened: as §2

[3] = tested on: Serratia marcescens expressing IMP-1 (CL5741); assay: as above; assay type: cell-based
Procedure, shortened: as §2

[4] = tested on: Escherichia coli expressing NDM-1 (CLB30016); assay: as above; assay type: cell-based; details: E. coli CLB30016 (NDM-1), 95% inhibition of growth
Procedure, shortened: as §2

[5] = enzyme 1 pM, read-out: NDM1 IC50
[6] = 95% inhibition of bacterial growth, strain IHMA599644
[7] = 95% inhibition of bacterial growth, strain CL5741
[8] = NDM-1 enzyme 1 pM, read-out: NDM1 IC50
[9] = K. pneumoniae IHMA599644 (VIM-1), 95% inhibition of growth
[10] = S. marcescens CL5741 (IMP-1), 95% inhibition of growth

NDM-1, sequence (C7C422 29-270, looked up, species assumed): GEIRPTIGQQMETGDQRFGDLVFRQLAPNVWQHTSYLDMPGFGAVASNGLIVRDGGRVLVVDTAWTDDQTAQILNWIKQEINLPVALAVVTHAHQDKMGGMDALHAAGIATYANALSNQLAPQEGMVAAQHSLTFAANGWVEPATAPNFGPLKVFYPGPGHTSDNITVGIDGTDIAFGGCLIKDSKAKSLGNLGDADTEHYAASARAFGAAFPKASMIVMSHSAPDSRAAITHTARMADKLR
IMP-1, sequence (P52699 19-246, looked up, species assumed): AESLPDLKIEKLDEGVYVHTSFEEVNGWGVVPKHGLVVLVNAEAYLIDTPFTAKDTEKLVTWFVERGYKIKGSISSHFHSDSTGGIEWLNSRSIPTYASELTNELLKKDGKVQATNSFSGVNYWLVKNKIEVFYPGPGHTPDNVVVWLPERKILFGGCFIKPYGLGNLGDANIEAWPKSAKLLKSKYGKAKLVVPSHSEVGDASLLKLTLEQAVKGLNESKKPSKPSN

Row | SMILES | IC50 (IMP-1; enzyme 2 pM) [nM] | IC50 (NDM-1; [5]) [nM] | IC50 (VIM-1; enzyme 30 pM) [nM] | NDM1 EC30005 MITC95 [1] [µM] | VIM1 KP599644 MITC95 [2, 6] [µM] | IMP1 SM5741 MITC95 [3, 7] [µM] | IC50 (IMP-1; IMP-1 enzyme 2 pM) [nM] | IC50 (NDM-1; [8]) [nM] | IC50 (VIM-1; VIM-1 enzyme 30 pM) [nM] | NDM1 EC30016 MITC95 [4] [µM] | VIM1 KP599644 MITC95 [2, 9] [µM] | IMP1 SM5741 MITC95 [3, 10] [µM] | IC50 (NDM-1; NDM1 IC50, NDM-1 enzyme 1 pM) [nM]
1 | CC(C)=CCCC(C(=O)O)[C@H](Cc1ccccc1)c1nnn[nH]1 (stereo in doubt) [Example 15, (2R)-6-methyl-2-[(1S)-2-phenyl-1-(1H-tetrazol-5-yl)ethyl]hept-5-enoic acid] | 4800 | 380 | 120 | 15.6 | 200 | >200 |  |  |  |  |  |  | 
2 | CCCCC(C(=O)O)[C@@H](Cc1ccc(-c2ccc(S(C)(=O)=O)cc2)cc1)c1nn[nH]n1 (stereo in doubt) [Example 183, (2R)-2-[(1R)-2-[4′-(methylsulfonyl)biphenyl-4-yl]-1-(2H-tetrazol-5-yl)ethyl]hexanoic acid] | 200 | 660 | 700 | >200 | >200 | >200 |  |  |  |  |  |  | 
3 | CC(C)CCC[C@H](C(=O)O)[C@H](Cc1ccccc1)c1nnn[nH]1 [Example 1, (S)-6-Methyl-2-((S)-2-phenyl-1-(1H-tetrazol-5-yl)ethyl)heptanoic acid] | 280 | 870 | > 20000 | 75 | >200 | 138 |  |  |  |  |  |  | 
4 | CC(C)CCC[C@@H](C(=O)O)[C@H](Cc1ccccc1)c1nnn[nH]1 [Example 2, (R)-6-methyl-2-((S)-2-phenyl-1-(1H-tetrazol-5-yl)ethyl)heptanoic acid] | 68 | 5400 | 8200 | >200 | >200 | 100 |  |  |  |  |  |  | 
5 | O=C(O)[C@@H](Cc1ccccc1)[C@H](Cc1ccccc1)c1nnn[nH]1 [Example 3, (2S,3S)-2-benzyl-4-phenyl-3-(1H-tetrazol-5-yl)butanoic acid] | 550 | 350 | 640 | 200 | >200 | 112.5 |  |  |  |  |  |  | 
6 | CCC[C@H](C(=O)O)[C@H](Cc1ccccc1)c1nnn[nH]1 [Example 4, (S)-2-((S)-2-phenyl-1-(1H-tetrazol-5-yl)ethyl)pentanoic acid] | 380 | 49 | 14 | 9.4 | 50 | >200 |  |  |  |  |  |  | 
7 | CCC[C@@H](C(=O)O)[C@H](Cc1ccccc1)c1nnn[nH]1 [Example 5, (R)-2-((S)-2-phenyl-1-(1H-tetrazol-5-yl)ethyl)pentanoic acid] | 1500 | 230 | 61 | 62.5 | 200 | >200 |  |  |  |  |  |  | 
8 | CCC[C@H](C(=O)O)[C@H](Cc1ccccc1C1=CCC(NC)CC1)c1nn[nH]n1 (stereo partly drawn) [Example 448, 2′-((2S,3S)-3-carboxy-2-(2H-tetrazol-5-yl)hexyl)-N-methyl-2,3,4,5-tetrahydro-[1,1′-biphenyl]-4-aminium 2,2,2-trifluoroacetate] |  |  |  |  |  |  | 7790 | 92.5 | 48.6 | 12.5 | 37.5 | 200 | 
9 | CCC[C@H](C(=O)O)[C@H](Cc1ccccc1C1=CCC(N)CC1)c1nn[nH]n1 (stereo partly drawn) [Example 449, 2′-((2S,3S)-3-carboxy-2-(2H-tetrazol-5-yl)hexyl)-2,3,4,5-tetrahydro-[1,1′-biphenyl]-4-aminium 2,2,2-trifluoroacetate] |  |  |  |  |  |  | 8860 | 72.9 | 87.2 | 9.375 | 25 | 200 | 
10 | CC(C)C[C@H](C(=O)O)[C@H](Cc1ccc(C2=CCCNC2)c(F)c1)c1nn[nH]n1 [Example 450, 5-(4-((2S,3S)-3-carboxy-5-methyl-2-(2H-tetrazol-5-yl)hexyl)-2-fluorophenyl)-1,2,3,6-tetrahydropyridin-1-ium 2,2,2-trifluoroacetate] |  |  |  |  |  |  | 138 | 88.9 | 2.18 | 7.813 | 18.75 | 6.25 | 
11 | CNC1CC=C(c2ccc(C[C@H](c3nn[nH]n3)[C@H](CC(C)C)C(=O)O)cc2F)CC1 (stereo partly drawn) [Example 451, 4′-((2S,3S)-3-carboxy-5-methyl-2-(2H-tetrazol-5-yl)hexyl)-2′-fluoro-N-methyl-2,3,4,5-tetrahydro-[1,1′-biphenyl]-4-aminium 2,2,2-trifluoroacetate] |  |  |  |  |  |  | 27.2 | 30.8 | 10.1 | 9.375 | 25 | 3.125 | 
12 | CC(C)C[C@H](C(=O)O)[C@H](Cc1ccc(C2=CCNC2)c(F)c1)c1nn[nH]n1 [Example 452, 3-(4-((2S,3S)-3-carboxy-5-methyl-2-(2H-tetrazol-5-yl)hexyl)-2-fluorophenyl)-2,5-dihydro-1H-pyrrol-1-ium 2,2,2-trifluoroacetate] |  |  |  |  |  |  | 222 | 93.1 | 0.937 | 9.375 | 12.5 | 9.375 | 
13 | CC(C)C[C@H](C(=O)O)[C@H](Cc1ccc(C2=CCNCC2)c(F)c1)c1nn[nH]n1 [Example 453, 4-(4-((2S,3S)-3-carboxy-5-methyl-2-(2H-tetrazol-5-yl)hexyl)-2-fluorophenyl)-1,2,3,6-tetrahydropyridin-1-ium 2,2,2-trifluoroacetate] |  |  |  |  |  |  | 101 |  | 2.25 | 6.25 | 12.5 | 3.125 | 64.5
14 | CC(C)C[C@H](C(=O)O)[C@H](Cc1ccc(-c2ccc(CN)cc2)c(F)c1)c1nn[nH]n1 [Example 454, (4′-((2S,3S)-3-carboxy-5-methyl-2-(2H-tetrazol-5-yl)hexyl)-2′-fluoro-[1,1′-biphenyl]-4-yl)methanaminium 2,2,2-trifluoroacetate] |  |  |  |  |  |  | 24.7 | 29.5 | 3.52 | 4.688 | 25 | 1.563 | 
15 | CC(C)C[C@H](C(=O)O)[C@H](Cc1ccc(C2=CCC(N)CC2)c(F)c1)c1nn[nH]n1 (stereo partly drawn) [Example 455, 4′-((2S,3S)-3-carboxy-5-methyl-2-(2H-tetrazol-5-yl)hexyl)-2′-fluoro-2,3,4,5-tetrahydro-[1,1′-biphenyl]-4-aminium 2,2,2-trifluoroacetate] |  |  |  |  |  |  | 23.9 | 23.4 | 3.38 | 4.688 | 18.75 | 3.125 | 
16 | CC(C)C[C@H](C(=O)O)[C@H](Cc1ccc(-c2ccc(C(N)=O)cc2)c(F)c1)c1nn[nH]n1 [Example 456, (S)-2-((S)-2-(4′-carbamoyl-2-fluoro-[1,1′-biphenyl]-4-yl)-1-(2H-tetrazol-5-yl)ethyl)-4-methylpentanoic acid] |  |  |  |  |  |  | 7.09 | 4.35 | 0.637 | 18.75 | 37.5 | 0.7813 | 
